For 38 compounds, IC50 results are on record in patent publication US11746098B2, “Proteasome activity enhancing compounds” (Proteostasis Therapeutics, Inc., priority 2018, dated 2023).

pIC50: −log10 of the molar value. A value given as a limit tells only on which side of the number the result lay.

In general, pIC50 refers to −log10 of the IC50, conventionally taken in molar units.

The target in this assay is USP14 (Homo sapiens, UniProt P54578). The assay can be described thus: USP14 Inhibition Assay. It counts as biochemical. The note with it: average value from a minimum of two experimental determinations, read-out: IC50 Category. An excerpt: The activity of the compound described herein to inhibit USP14 can be measured using previously described methodology [B. H. Lee et al. Nature 2010, 467 (9), 179, the contents of which are expressly incorporated by reference herein].
Example 6: USP14 Inhibition Assay
Turning to `Cc1cc(C(=O)CN2CCC(O)CC2)c(C)n1-c1cc(Cl)cc(Cl)c1` [Compound 18, 1-(1-(3,5-Dichlorophenyl)-2,5-dimethyl-1H-pyrrol-3-yl)-2-(4-hydroxypiperidin-1-yl)ethanone], the pIC50 is less than 5.30. Turning to `Cc1cc(C(=O)CN2CCCC2)c(C)n1-c1ccc(O)cc1` [Compound 19, 1-(1-(4-Hydroxyphenyl)-2,5-dimethyl-1H-pyrrol-3-yl)-2-(pyrrolidin-1-yl)ethanone], the pIC50 was less than 5.30.

As to `Cc1cc(C(=O)CN2CCC(O)CC2)c(C)n1-c1ccc(O)cc1` [Compound 20, 1-(1-(4-Hydroxyphenyl)-2,5-dimethyl-1H-pyrrol-3-yl)-2-(4-hydroxypiperidin-1-yl)ethanone], the pIC50 is less than 5.30.

On to `Cc1cc(C(=O)CN2CCC(O)CC2)c(C)n1-c1ccc(C(F)(F)F)cc1` [Compound 21, 1-(2,5-Dimethyl-1-(4-(trifluoromethyl)phenyl)-1H-pyrrol-3-yl)-2-(4-hydroxypiperidin-1-yl)ethanone], for which the pIC50 is less than 5.30. To `Cc1cc(C(=O)CN2CCCC2)c(C)n1-c1cc(F)cc(F)c1` [Compound 22, 1-(1-(3,5-Difluorophenyl)-2,5-dimethyl-1H-pyrrol-3-yl)-2-(pyrrolidin-1-yl)ethanone] belongs less than 5.30.

`Cc1cc(Cl)cc(C)c1-n1ccc(C(=O)CN2CCCC2)c1` [Compound 23, 1-(1-(4-Chloro-2,6-dimethylphenyl)-1H-pyrrol-3-yl)-2-(pyrrolidin-1-yl)ethanone]: the pIC50 is less than 5.30.

With `Cc1cc(Cl)cc(C)c1-n1ccc(C(=O)CN2CCC(O)CC2)c1` [Compound 24, 1-(1-(4-Chloro-2,6-dimethylphenyl)-1H-pyrrol-3-yl)-2-(4-hydroxypiperidin-1-yl)ethanone], the pIC50 was less than 5.30. To `Cc1cc(C(=O)CN2CCC(C(=O)O)CC2)c(C)n1-c1ccc(Cl)cc1` [Compound 25, 1-(2-(1-(4-Chlorophenyl)-2,5-dimethyl-1H-pyrrol-3-yl)-2-oxoethyl)piperidine-4-carboxylic acid] belongs less than 5.30; to `Cc1cc(Cl)cc(C)c1-n1ccc(C(=O)CN2CCCCC2)c1` [Compound 26, 1-(1-(4-Chloro-2,6-dimethylphenyl)-1H-pyrrol-3-yl)-2-(piperidin-1-yl)ethanone], less than 5.30.

As for `Cc1cc(Cl)cc(C)c1-n1cccc1C(=O)CN1CCCCC1` [Compound 27, 1-(1-(4-Chloro-2,6-dimethylphenyl)-1H-pyrrol-2-yl)-2-(piperidin-1-yl)ethanone], the pIC50 was less than 5.30. Consider `Cc1cc(Cl)cc(C)c1-n1cccc1C(=O)CN1CCCC1` [Compound 28, 1-(1-(4-Chloro-2,6-dimethylphenyl)-1H-pyrrol-2-yl)-2-(pyrrolidin-1-yl)ethanone], for which the pIC50 was less than 5.30.

For `Cc1cc(Cl)cc(C)c1-n1cccc1C(=O)CN1CCC(O)CC1` [Compound 29, 1-(1-(4-Chloro-2,6-dimethylphenyl)-1H-pyrrol-2-yl)-2-(4-hydroxypiperidin-1-yl)ethanone], the pIC50 is less than 5.30. In the case of `Cc1cc(C(=O)CN2CCCCC2)c(C)n1[C@H]1CC[C@@H](F)CC1` [Compound 32, 1-(1-(cis-4-Fluorocyclohexyl)-2,5-dimethyl-1H-pyrrol-3-yl)-2-(piperidin-1-yl)ethanone], the negative-log IC50 (pIC50) is less than 5.30. The value for `Cc1ccc(C(=O)CN2CCCCC2)n1-c1ccc(Cl)cc1` [Compound 33, 1-(1-(4-Chlorophenyl)-5-methyl-1H-pyrrol-2-yl)-2-(piperidin-1-yl)ethanone] was less than 5.30; that for `Cc1cc(C(=O)CN2CCCCC2)c(C)n1C1CCC1` [Compound 35, 1-(1-Cyclobutyl-2,5-dimethyl-1H-pyrrol-3-yl)-2-(piperidin-1-yl)ethanone] was less than 5.30; that for `Cc1cc(C(=O)CN2CCC(O)CC2)c(C)n1C1CCC1` [Compound 36, 1-(1-Cyclobutyl-2,5-dimethyl-1H-pyrrol-3-yl)-2-(4-hydroxypiperidin-1-yl)ethanone] was less than 5.30. On to `Cc1cc(C(=O)CN2CCC(C(=O)OCc3ccccc3)CC2)c(C)n1C1CCC1` [Compound 37, Benzyl 1-(2-(1-cyclobutyl-2,5-dimethyl-1H-pyrrol-3-yl)-2-oxoethyl)piperidine-4-carboxylate], for which the negative logarithm of the IC50 (pIC50) is less than 5.30.

Regarding `Cc1cc(C(=O)CC2CCCNC2)c(C)n1-c1ccc(Cl)cc1` (centres unmarked) [Compound 38, 1-(1-(4-Chlorophenyl)-2,5-dimethyl-1H-pyrrol-3-yl)-2-(piperidin-3-yl)ethanone], the pIC50 was less than 5.30. To `Cc1cc(C(=O)CC2CCNCC2)c(C)n1-c1ccc(Cl)cc1` [Compound 39, 1-(1-(4-Chlorophenyl)-2,5-dimethyl-1H-pyrrol-3-yl)-2-(piperidin-4-yl)ethanone] belongs less than 5.30; to `Cc1cc(C(=O)CNCC2COC(C)(C)O2)c(C)n1-c1ccc(Cl)cc1` (centres unmarked) [Compound 40, 1-(1-(4-Chlorophenyl)-2,5-dimethyl-1H-pyrrol-3-yl)-2-(((2,2-dimethyl-1,3-dioxolan-4-yl)methyl)amino)ethanone], less than 5.30. Turning to `Cc1cc(C(=O)CNCCOCc2ccccc2)c(C)n1-c1ccc(Cl)cc1` [Compound 41, 2-((2-(Benzyloxy)ethyl)amino)-1-(1-(4-chlorophenyl)-2,5-dimethyl-1H-pyrrol-3-yl)ethanone], the pIC50 was less than 5.30. To `Cc1cc(C(=O)CNCCOCc2ccccc2)c(C)n1-c1ccc(C#N)cc1` [Compound 42, 4-(3-(2-((2-(Benzyloxy)ethyl)amino)acetyl)-2,5-dimethyl-1H-pyrrol-1-yl)benzonitrile] belongs less than 5.30; to `Cc1cc(C(=O)CN(CCOCc2ccccc2)CC(=O)c2cc(C)n(-c3ccc(C#N)cc3)c2C)c(C)n1-c1ccc(C#N)cc1` [Compound 43, 4,4′-(3,3′-(2,2′-((2-(Benzyloxy)ethyl)azanediyl)bis(acetyl))bis(2,5-dimethyl-1H-pyrrole-3,1-diyl))dibenzonitrile], less than 5.30; to `Cc1cc(C(=O)C[N+]2(C)CCCCC2)c(C)n1-c1ccc(Cl)cc1` [Compound 44, 1-(2-(1-(4-Chlorophenyl)-2,5-dimethyl-1H-pyrrol-3-yl)-2-oxoethyl)-1-methylpiperidin-1-ium Iodide], less than 5.30.

Regarding `Cc1cc(C(=O)CN2CCCCC2)c(C)n1[C@H]1CC[C@@H](C(=O)OCc2ccccc2)CC1` [Compound 45, cis-Benzyl 4-(2,5-dimethyl-3-(2-(piperidin-1-yl)acetyl)-1H-pyrrol-1-yl)cyclohexanecarboxylate], the pIC50 was less than 5.30.

For the compound `Cc1cc(C(=O)CN2CCCCC2)c(C)n1[C@H]1CC[C@@H](C(=O)O)CC1` [Compound 46, cis-4-(2,5-Dimethyl-3-(2-(piperidin-1-yl)acetyl)-1H-pyrrol-1-yl)cyclohexanecarboxylic acid], the pIC50 is less than 5.30.

As for `Cc1cc(C(=O)CNC2CC2)c(C)n1-c1ccc(Cl)cc1` [Compound 48, 1-(1-(4-Chlorophenyl)-2,5-dimethyl-1H-pyrrol-3-yl)-2-(cyclopropylamino)ethanone], the pIC50 was 5.30 to 6.30. Consider `Cc1cc(C(=O)CN2CCC(OCc3ccccc3)C2)c(C)n1-c1ccc(Cl)cc1` (centres unmarked) [Compound 49, 2-(3-(Benzyloxy)pyrrolidin-1-yl)-1-(1-(4-chlorophenyl)-2,5-dimethyl-1H-pyrrol-3-yl)ethanone], for which the pIC50 was 5.30 to 6.30. To `Cc1cc(C(=O)CN2CCCC2CCO)c(C)n1-c1ccc(Cl)cc1` (centres unmarked) [Compound 50, 1-(1-(4-Chlorophenyl)-2,5-dimethyl-1H-pyrrol-3-yl)-2-(2-(2-hydroxyethyl)pyrrolidin-1-yl)ethanone] belongs 5.30 to 6.30; to `Cc1cc(C(=O)CN2CCC(S(C)(=O)=O)C2)c(C)n1-c1ccc(Cl)cc1` (centres unmarked) [Compound 51, 1-(1-(4-Chlorophenyl)-2,5-dimethyl-1H-pyrrol-3-yl)-2-(3-(methylsulfonyl)pyrrolidin-1-yl)ethanone], 5.30 to 6.30; to `Cc1cc(C(=O)CN2CC[C@H](O)C2)c(C)n1-c1ccc(Cl)cc1` [Compound 52, (S)-1-(1-(4-Chlorophenyl)-2,5-dimethyl-1H-pyrrol-3-yl)-2-(3-hydroxypyrrolidin-1-yl)ethanone], 5.30 to 6.30. To `Cc1cc(C(=O)CN2CCC(C(F)(F)F)CC2)c(C)n1-c1ccc(Cl)cc1` [Compound 53, 1-(1-(4-Chlorophenyl)-2,5-dimethyl-1H-pyrrol-3-yl)-2-(4-(trifluoromethyl)piperidin-1-yl)ethanone] belongs 5.30 to 6.30. The value for `CCCNC(=O)OC1CCCN(CC(=O)c2cc(C)n(-c3ccc(Cl)cc3)c2C)C1` (centres unmarked) [Compound 54, 1-(2-(1-(4-Chlorophenyl)-2,5-dimethyl-1H-pyrrol-3-yl)-2-oxoethyl)piperidin-3-yl propylcarbamate] was 5.30 to 6.30; that for `Cc1cc(C(=O)CN2CCC(N(C)C)C2)c(C)n1-c1ccc(Cl)cc1` (centres unmarked) [Compound 55, 1-(1-(4-Chlorophenyl)-2,5-dimethyl-1H-pyrrol-3-yl)-2-(3-(dimethylamino)pyrrolidin-1-yl)ethanone] was 5.30 to 6.30; that for `Cc1cc(C(=O)CN2CCCC2)c(C)n1-c1ccc(Br)c(Cl)c1` [Compound 56, 1-(1-(4-Bromo-3-chlorophenyl)-2,5-dimethyl-1H-pyrrol-3-yl)-2-(pyrrolidin-1-yl)ethanone] was 5.30 to 6.30. `Cc1cc(C(=O)CN2CCCCC2)c(C)n1-c1ccc(Br)c(Cl)c1` [Compound 57, 1-(1-(4-Bromo-3-chloropheny1)-2,5-dimethyl-1H-pyrrol-3-yl)-2-(piperidin-1-yl)ethanone]: the pIC50 is 5.30 to 6.30. The value for `Cc1cc(C(=O)CN2CCCCC2)c(C)n1-c1ccc(OC(F)(F)F)cc1` [Compound 58, 1-(2,5-Dimethyl-1-(4-(trifluoromethoxy)phenyl)-1H-pyrrol-3-yl)-2-(piperidin-1-yl)ethanone] was 5.30 to 6.30; that for `Cc1cc(C(=O)CN2CCC(O)CC2)c(C)n1-c1ccc(Br)c(Cl)c1` [Compound 59, 1-(1-(4-Bromo-3-chlorophenyl)-2,5-dimethyl-1H-pyrrol-3-yl)-2-(4-hydroxypiperidin-1-yl)ethanone] was 5.30 to 6.30.
